Laboratory results reported in patent US8507440B2, “Protein kinase C peptides for use in withdrawal” (The Board of Trustees of the Leland Stanford Junior …, priority 2002, dated 2013).
Ends that are not written are not given here.

What was measured:
isolated spinal cords = assay: slow ventral root potential (sVRP) of isolated spinal cord, naloxone-precipitated morphine withdrawal hyperresponsiveness; type: cell-based, rat; details: for sVRP area 30 minutes after naloxone / block of naloxone-precipitated withdrawal hyperresponsiveness of sVRP: morphine 200 nM then naloxone 200 nM, GF109203X 1.2 μM, Go6976 1 μM, εV1-2 2 nM; for block of naloxone-precipitated withdrawal hyperresponsiveness of sVRP: γV5-3 4 nM, Tat 2-4 nM
Text: The slow ventral root potential (sVRP) is an electrophysiolgical measurement of nociceptive-related response in the spinal cord lasting approximately 40 seconds (Yanagisawa et al., Eur. J. Pharmacol., 106:231-239 (1984); Akagi H. et al., British J. Pharmacol., 84:663-673 (1985); Otsuka M. et al., J. Physiol., 395:255-270 (1988)). It is evoked by stimulation of a lumbar dorsal root at an intensity sufficient to activate small diameter afferents that transmit nociceptive (painful) stimuli from the periphery to the spinal cord (Lozier A. P. et al., J. Neurophysiol., 74:1001-1009 (1995)). […] Thus, the sVRP is related to pain, and its exaggeration following naloxone is a manifestation of withdrawal which translates to an increase in pain sensation in vivo.
Spinal cords from 4-7 day old rats (Charles River Laboratories) were removed and arranged for electrophysiological recording of the slow ventral root potentials (sVRP) (Woodley S. J., et al., Brain Res., 559:17-21 (1991). Briefly, pups were decapitated under halothane anesthesia and the spinal cord removed to an oxygenated artificial cerebrospinal fluid solution. A suction stimulating electrode was placed on a lumbar dorsal root and a suction recording electrode on the corresponding ipsilateral ventral root. Square wave stimuli 0.2 ms in duration were administered at a constant frequency of 1/50 seconds throughout the experiment. Test agents were applied and the responses were recorded, digitized, and area under the curve measured.
After a baseline reading of the sVRP, morphine (200 nM) was applied to the isolated spinal cords. The sVRP was again recorded to characterize the response to morphine. Naloxone (200 nM) was then applied and the sVRPs recorded.
FIGS. 2A-2D show the results after application of non-specific PKC antagonist, GF109203X (1.2 μM), and of an inhibitor specific to Ca++-dependent PKC isoforms, Go6976 (1 μM).
FIGS. 3A-3B show the results after application of the εPCK antagonist (εV1-2; SEQ ID NO:1, 2 nM), conjugated to a peptide carrier (Tat; SEQ ID NO:3) and the Tat peptide alone (2 nM; SEQ ID NO:3). FIGS. 3C-3D show the results after application of γPKC (γV5-3; SEQ ID NO:2, 4 nM) conjugated to a peptide carrier (Tat; SEQ ID NO:3) and of the Tat peptide alone (4 nm; SEQ ID NO:3).

[1] = tested on: 7 day old and 21 day old rats; assay: ethanol withdrawal thermal hyperalgesia testing (paw withdrawal latency); type: in vivo, rat; details: 7 day old rats; intrathecally 4 hours after 4 g/kg 15% EtOH
[2] = tested on: 7 day old and 21 day old rats; assay: ethanol withdrawal mechanical allodynia testing (von Frey threshold withdrawal force); type: in vivo, rat
postnatal day 7 rats = assay: naloxone-precipitated morphine withdrawal, mechanical threshold and thermal paw withdrawal latency in vivo; parameters: species or system rat; details: for block of naloxone-precipitated morphine withdrawal allodynia and hyperalgesia: 10 μM in 5 μl intrathecally prior to morphine 1 mg/kg s.c., naloxone 0.25 mg/kg 30 min after morphine
Description: In vivo studies on opiate withdrawal allodynia and hyperalgesia were conducted using postnatal day 7 rats. As described in Example 2, postnatal day 7 rats were given morphine subcutaneously followed 30 minutes later by naloxone or saline. Mechanical threshold using von Frey filaments to produce the flexion withdrawal response of the hind paw and thermal stimulation to measure the paw withdrawal latency were measured as described in Example 2.
FIG. 5A illustrates a treatment protocol where rat pups were given a PKC antagonist intrathecally (e.g., directly into the cerebrospinal fluid surrounding the spinal cord) prior to subcutaneous morphine delivery. Thirty minutes after morphine delivery, naloxone was administered, followed by mechanical allodynia and thermal hyperalgesia testing (as described in Example 2).
Postnatal day 7 Sprague-Dawley rats (Charles River Laboratories) of both sexes were used. For all behavioural experiments rats were maintained at nesting temperature with overhead heatlamps.
To measure mechanical thresholds, rats were placed on an elevated wire mesh (2 mm openings). Von Frey hairs (Stoelting Co., WoodDale, Ill., USA) were used to elicit a cutaneous flexion withdrawal response as described by Fitzgerald et al. (Fitzgerald M., et al., PAIN […] INFANTS, CHILDREN AND ADOLESCENTS; Schetchter and Yaster, Eds., pp 11-32, Williams and Williams (Baltimore, Md.) (1993). Von Frey hairs of increasing intensity were applied three times to the plantar surface of the left hind paw until a paw withdrawal was elicited. The lowest intensity Von Frey hair required to produce a withdrawal reflex was recorded as the response threshold to a low-intensity mechanical stimulus.
Thermal paw withdrawal latencies were measured using the Ugo Basile Plantar Testing apparatus (Stoelting Co., WoodDale, Ill., USA). Briefly, postnatal day 7 rats were placed under inverted Plexiglas enclosures and the plantar surface of the left hindpaw was heated from below with the IR intensity of the lamp set at 30. Two baseline thermal response latency measures were collected prior to morphine administration with a cut-off of 20 seconds enlisted to prevent tissue damage.
Postnatal day 7 rats were administered 1 mg/kg morphine sulfate (Sigma) subcutaneously in 50 μl saline. Mechanical thresholds were measured 15 minutes later to establish analgesia. Rats were returned to their dam. At 30 or 120 minutes post morphine, rats were administered 0.25 mg/kg naloxone (Sigma) subcutaneously in 50 μl saline. Mechanical thresholds and thermal paw withdrawal latencies were measured in 10 minute intervals. Tat conjugated peptide inhibitors specific to the ε (εV1-2; SEQ ID NO:1, 10 μM) and γ ([…]; SEQ ID NO:2, 10 μM) isoforms of PKC, Tat carrier (10 μM), or saline were administered in 5 μl volumes intrathecally via direct lumbar puncture using a sterile 29 gauge 3/10 cc insulin syringe in rats lightly anesthetized with halothane. To allow for complete recovery from anesthetic, animals were administered peptides or control solutions 30 minutes prior to naloxone.
An unpaired T-test was used to determine the significance of post-naloxone measures from baseline measures. Significance between treatment groups for PKC inhibitor studies both in vivo and in vitro was determined by one way analysis of variance (ANOVA) followed by a post-hoc Bonferroni analysis. P-values<0.05 were considered significant. All statistical analysis was done with GraphPad Prism version 3.02.

[3] = tested on: N-methyl-D-aspartate (NMDA) receptor currents; assay: alcohol withdrawal hyperresponsiveness of NMDA-evoked currents in lumbar spinal cord slice motor neurons; type: cell-based, rat
Text: Spinal cords were taken from young rats, and slices of these cords were made and placed in artificial cerebrospinal fluid for patch clamp electrophysiological analysis, to characterize the ability of γPKC peptides to mediate alcohol withdrawal hyperresponsiveness of N-methyl-D-aspartate (NMDA) receptor currents. FIG. 7A is a schematic diagram of the technique, where a lumbar spinal cord slice 10 is shown. The placement of a recording electrode 12 and a pipette 14 for application of NMDA relative to a motor neuron 16 is illustrated.
Sprague-Dawley rats at postnatal day 7-10 were anesthetized with halothane, decapitated, and the spinal cords were quickly removed. Slices […] thick were sectioned from the lumbar region. Whole cell voltage clamp recordings were made from visually-identified motor neurons using infrared video microscopy, a 60× water immersion lens, and a MultiClamp 700A patch clamp amplifier. Cells were held at a holding potential of −60 mV in artificial cerebrospinal fluid (ACSF) containing bicuculline methiodide ([…]), strychnine ([…]), and tetrodotoxin ([…]). Postsynaptic currents were evoked by direct pressure application of 2 mM N-methyl-D-aspartate (NMDA) from a pipette positioned near the recorded cell at 1-2 min intervals, as illustrated in FIG. 7A. The area of evoked currents during and following 100 mM ethanol (EtOH) application was measured and normalized to the average baseline current area during the 10 minutes preceding EtOH application. Data are expressed as mean +/−SEM: Statistical significance was determined by one-way ANOVA followed by Dunn's or Tukey's multiple comparison test with significance set at p<0.05.

Molecule: εV1-2: εPKC antagonist peptide, SEQ ID NO:1, isozyme-specific translocation inhibitor, used Tat-conjugated (EAVSLKPT; also: Tat peptide conjugate; listed as Homo sapiens)
- effect on sVRP of inhibitor alone (isolated spinal cords; absence of morphine): did not alter the sVRP
- sVRP area 30 minutes after naloxone (isolated spinal cords): 102 % of control
- block of naloxone-precipitated withdrawal hyperresponsiveness of sVRP (isolated spinal cords): blocked withdrawal hyperresponsiveness
- thermal hyperalgesia, paw withdrawal latency [1]: completely prevented thermal hyperalgesia
- mechanical allodynia, threshold withdrawal force ([2]; 7 day old rats, 5 μL of 20 μM intrathecally 5 hours after 4 g/kg 15% EtOH i.p., 6 and 7 hour post-EtOH, versus Tat carrier): attenuated mechanical allodynia
- mechanical allodynia, threshold withdrawal response ([2]; 21 day old rats, 10 μL of 20 μM intrathecally 4 hours after 4 g/kg 15% EtOH i.p.): slightly attenuated the response at 6 hours and 8 hours post ethanol injection
- block of naloxone-precipitated morphine withdrawal allodynia and hyperalgesia (postnatal day 7 rats): effective to block naloxone-precipitated morphine withdrawal allodyina and hyperalgesia

Molecule: O=C(O)CN(CC(=O)O)c1ccccc1OCCOc1ccccc1N(CC(=O)O)CC(=O)O [BAPTA, 1,2-bis(2-aminophenoxy)ethane-N,N,N′,N′-tetraacetic acid, reference compound]
- ethanol withdrawal hyperresponsiveness of NMDA-evoked currents with calcium chelator ([3]; 30 mM in recording pipette): no ethanol-withdrawal hyperresponsiveness

Molecule: Tat: Tat-derived carrier peptide (Tat 47-57), control for the conjugated inhibitors
- block of naloxone-precipitated withdrawal hyperresponsiveness of sVRP (isolated spinal cords): did not block the withdrawal response
- effect on ethanol withdrawal hyperresponsiveness of NMDA-evoked currents ([3]; 10 nM Tat carrier alone): does not prevent the symptom
- block of naloxone-precipitated morphine withdrawal allodynia and hyperalgesia (postnatal day 7 rats): did not prevent allodynia and hyperalgesia

Molecule: CN(C)CCCn1cc(C2=C(c3c[nH]c4ccccc34)C(=O)NC2=O)c2ccccc21 [GF109203X]
- sVRP area 30 minutes after naloxone (isolated spinal cords): 87 % of control
- block of naloxone-precipitated withdrawal hyperresponsiveness of sVRP (isolated spinal cords): blocked the withdrawal hyperresponsivess

Molecule: CN1CC[C@]23c4c5ccc(O)c4O[C@H]2[C@@H](O)C=C[C@H]3[C@H]1C5 [morphine]
- effect of morphine on sVRP (isolated spinal cords; morphine 200 nM): depressed
- paw withdrawal threshold and latency after morphine (postnatal day 7 rats; morphine 1 mg/kg s.c., then saline): exhibited profound analgesia

Molecule: COc1ccc2c(c[n+](C)c3c4cc5c(cc4ccc23)OCO5)c1OC [chelerythrine]
- sVRP area 30 minutes after naloxone (isolated spinal cords): 100.1 % of control
- block of naloxone-precipitated withdrawal hyperresponsiveness of sVRP (isolated spinal cords): did block morphine withdrawal
- effect on the response to morphine (isolated spinal cords; morphine-exposed spinal cords): did not alter the response to morphine

Molecule: Cn1c2ccccc2c2c3c(c4c5ccccc5n(CCC#N)c4c21)CNC3=O [Go6976]
- sVRP area 30 minutes after naloxone (isolated spinal cords): 127.4 % of control
- block of naloxone-precipitated withdrawal hyperresponsiveness of sVRP (isolated spinal cords): did not block withdrawal

Molecule: C=CCN1CC[C@]23c4c5ccc(O)c4O[C@H]2C(=O)CC[C@@]3(O)[C@H]1C5 [naloxone]
- sVRP area 30 minutes after naloxone (isolated spinal cords): 140.9 % of control
- mechanical threshold and paw withdrawal latency, naloxone after morphine (postnatal day 7 rats; naloxone 0.25 mg/kg s.c. following 30 minutes of morphine exposure): precipitated mechanical allodynia and thermal hyperalgesia
- mechanical threshold and paw withdrawal latency, naloxone alone (postnatal day 7 rats; no morphine): did not alter paw withdrawal thresholds to mechanical stimulation or paw withdrawal latency to thermal stimulation
